Results from ChEMBL document CHEMBL5096181, “Isoxazole derivatives as anticancer agent: A review on synthetic strategies, mechanism of action and SAR studies” (Eur J Med Chem, 2021).
In brackets after ≈: the same amount, converted by molar mass.

How the values were obtained:
DU-145 = assay: Cytotoxicity against human DU-145 cells assessed as inhibition of cell growth by MTT assay; type: functional, cell-based
Mahlavu = assay: Cytotoxicity against human Mahlavu cells assessed as cell growth inhibition and measured after 72 hrs by SRB assay; type: functional, cell-based
MCF7 [1] = assay: Cytotoxicity against human MCF7 cells assessed as cell growth inhibition and measured after 72 hrs by SRB assay; type: functional, cell-based; conditions: MCF7, 72 h
Huh-7 = assay: Cytotoxicity against human Huh-7 cells assessed as cell growth inhibition and measured after 72 hrs by SRB assay; type: functional, cell-based; conditions: Huh-7, 72 h
MCF7 [2] = assay: Antiproliferative activity against human MCF7 cells assessed as inhibition of cell growth measured after 48 hrs by SRB assay; type: functional, cell-based; conditions: MCF7, 48 h
MCF7 [3] = assay: Cytotoxicity against human MCF7 cells assessed as cell growth inhibition by MTT assay; type: functional, cell-based
LNCaP = assay: Antiproliferative activity against human LNCaP cells assessed as cell growth inhibition by MTT assay; type: functional, cell-based
LNCaP C4-2B = assay: Antiproliferative activity against human LNCaP C4-2B cells assessed as cell growth inhibition by MTT assay; type: functional, cell-based
CWR22R = assay: Antiproliferative activity against human 22Rv1 cells assessed as cell growth inhibition by MTT assay; type: functional, cell-based
Tubulin [4] = assay: Inhibition of tubulin polymerization (unknown origin) by spectrophotometer based analysis; type: protein-complex assay, Homo sapiens
PC-3 = assay: Antiproliferative activity against human PC-3 cells assessed as cell growth inhibition by MTT assay; type: functional, cell-based
MCF7R = assay: Cytotoxicity against human MCF7R cells assessed as cell growth inhibition and by MTT assay; type: functional, cell-based
Aromatase = target: T1, Aromatase (Homo sapiens, UniProt P11511); assay: Inhibition of human recombinant aromatase expressed in baculovirus insect cell using 7-methoxy-trifluoromethyl coumarin (MFC) as substrate preincubated for 10 mins followed by substrate addition and measured for 30 mins by fluorescence based assay
T1 sequence (P11511 whole entry): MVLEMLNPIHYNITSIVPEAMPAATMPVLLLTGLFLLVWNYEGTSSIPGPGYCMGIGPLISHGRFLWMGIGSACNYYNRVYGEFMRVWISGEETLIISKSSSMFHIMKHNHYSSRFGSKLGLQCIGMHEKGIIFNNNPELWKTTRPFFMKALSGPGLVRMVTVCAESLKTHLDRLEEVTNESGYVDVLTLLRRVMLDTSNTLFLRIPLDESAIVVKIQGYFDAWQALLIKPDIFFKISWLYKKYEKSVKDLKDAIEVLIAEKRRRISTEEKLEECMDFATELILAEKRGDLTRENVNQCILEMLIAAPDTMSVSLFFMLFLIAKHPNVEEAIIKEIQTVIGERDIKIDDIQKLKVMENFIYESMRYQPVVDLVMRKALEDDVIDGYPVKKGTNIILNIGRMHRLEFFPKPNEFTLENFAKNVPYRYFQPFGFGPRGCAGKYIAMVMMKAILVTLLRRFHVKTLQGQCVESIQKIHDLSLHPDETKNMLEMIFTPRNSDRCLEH

[5] = target: T2, Tyrosine-protein phosphatase non-receptor type 1 (Homo sapiens, UniProt P18031); assay: Inhibition of PTP1B (unknown origin) by SpectraMax 340 microplate reader Analysis
T2 sequence (P18031 whole entry): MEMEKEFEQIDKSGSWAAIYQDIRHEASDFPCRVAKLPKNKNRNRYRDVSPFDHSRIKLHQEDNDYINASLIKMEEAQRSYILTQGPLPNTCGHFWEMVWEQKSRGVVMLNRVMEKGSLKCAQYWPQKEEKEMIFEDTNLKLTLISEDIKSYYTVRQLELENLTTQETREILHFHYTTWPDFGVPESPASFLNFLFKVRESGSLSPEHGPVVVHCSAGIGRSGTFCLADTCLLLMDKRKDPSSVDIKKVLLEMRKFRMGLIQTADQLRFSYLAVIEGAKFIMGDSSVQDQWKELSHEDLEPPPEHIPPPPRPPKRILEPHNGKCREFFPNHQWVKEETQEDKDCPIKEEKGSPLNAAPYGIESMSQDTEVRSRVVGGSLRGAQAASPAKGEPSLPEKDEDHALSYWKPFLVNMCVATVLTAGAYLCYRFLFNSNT

[6] = target: T3, Tyrosine-protein phosphatase non-receptor type 2 (Homo sapiens, UniProt P17706); assay: Inhibition of TCPTP (unknown origin) by SpectraMax 340 microplate reader Analysis
T3 sequence (P17706 whole entry): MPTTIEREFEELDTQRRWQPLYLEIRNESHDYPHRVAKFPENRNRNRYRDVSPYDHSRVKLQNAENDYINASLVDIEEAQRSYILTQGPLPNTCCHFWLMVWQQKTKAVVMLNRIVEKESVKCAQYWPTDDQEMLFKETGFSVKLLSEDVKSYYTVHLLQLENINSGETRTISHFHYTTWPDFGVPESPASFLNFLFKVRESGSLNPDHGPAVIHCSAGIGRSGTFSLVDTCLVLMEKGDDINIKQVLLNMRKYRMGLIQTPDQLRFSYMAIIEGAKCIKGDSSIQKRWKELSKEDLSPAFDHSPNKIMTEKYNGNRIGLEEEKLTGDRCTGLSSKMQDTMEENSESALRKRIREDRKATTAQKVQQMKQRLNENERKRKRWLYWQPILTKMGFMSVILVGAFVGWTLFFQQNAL

MCF7 [7] = assay: Anticancer activity against human MCF7 cells assessed as inhibition of cell proliferation measured after 4 hrs by MTT assay; type: functional, cell-based; conditions: MCF7, 4 h
MCF7 [8] = assay: Induction of apoptosis in human MCF7 cells assessed as early apoptosis cells at 2.0 uM measured after 24 hrs by annexin-V-FITC and PI staining based flow cytometry analysis (reference value: 0.486%); type: functional
Tubulin [9] = target: Tubulin (Sus scrofa, UniProt P02554+P02550); assay: Inhibition of pig brain tubulin polymerization by spectrometric method
MCF7 [10] = assay: Induction of apoptosis in human MCF7 cells assessed as late apoptosis cells at 2.0 uM measured after 24 hrs by annexin-V-FITC and PI staining based flow cytometry analysis (reference value: 0.529%); type: functional

SMILES: COc1ccc(C2CC(c3ccno3)=NN2C(N)=O)cc1OC (stereo not drawn)
- IC50 (DU-145): 4 µg/mL (≈ 12.6 µM)

SMILES: Oc1ccc(-c2cc(N3CCN(Cc4ccc(C(F)(F)F)cc4)CC3)no2)cc1
- IC50 (Mahlavu): 7.5 µM
- IC50 (MCF7 [1]): 8.3 µM
- IC50 (Huh-7): 3.8 µM

SMILES: COc1ccc(-c2cc(-c3c[nH]c4ccccc34)on2)cc1
- IC50 (MCF7 [2]): 2.55 µM

SMILES: Fc1ccc(-c2cc(N3CCN(Cc4ccc(C(F)(F)F)cc4)CC3)no2)cc1
- IC50 (Mahlavu): 6.2 µM
- IC50 (MCF7 [1]): 11.9 µM
- IC50 (Huh-7): 5.3 µM

SMILES: COc1cccc(-c2cc(Cn3nc(N)c4c(C(F)(F)F)cc(-c5cccs5)nc43)on2)c1
- IC50 (MCF7 [3]): 19.4 µM

SMILES: C#Cc1cccc(Nc2ncnc3cc(OCCOC)c(OCCOC)cc23)c1 [ERLOTINIB]
- IC50 (MCF7 [1]): 4.1 µM

SMILES: COc1cc(N(Cc2c(C)noc2C)C(=O)CSc2nc3ccccc3s2)cc(OC)c1OC
- IC50 (LNCaP): 4.31 µM
- IC50 (LNCaP C4-2B): 2.04 µM
- IC50 (CWR22R): 2.13 µM
- IC50 (Tubulin [4]): 2.87 µM
- IC50 (PC-3): 2.81 µM

SMILES: FC(F)(F)c1ccc(CN2CCN(c3cc(-c4ccc(Cl)cc4)on3)CC2)cc1
- IC50 (Mahlavu): 26.8 µM
- IC50 (MCF7 [1]): 14 µM
- IC50 (Huh-7): 9.6 µM

SMILES: O=S(=O)(Nc1ccc(-c2cnoc2)cc1)c1ccc(Cl)cc1
- IC50 (MCF7 [1]): 5.7 µM

SMILES: COc1ccc(/C=C/c2cc(/C=C/c3ccc(O)c(OC)c3)no2)cc1O
- IC50 (MCF7 [3]): 13.1 µM
- IC50 (MCF7R): 12 µM

SMILES: O=c1[nH]cc(F)c(=O)[nH]1 [FLUOROURACIL]
- IC50 (MCF7 [3]): 1.7 µM
- IC50 (Aromatase): 0.63 µM
- IC50 (CWR22R): 18.3 µM

SMILES: Cc1noc(C)c1COc1ccc(-c2cc(N3CCN(Cc4ccc(C(F)(F)F)cc4)CC3)no2)cc1
- IC50 (Mahlavu): 2.2 µM
- IC50 (MCF7 [1]): 1.6 µM
- IC50 (Huh-7): 1.2 µM

SMILES: FC(F)(F)c1ccc(CN2CCN(c3cc(-c4ccccc4)on3)CC2)cc1
- IC50 (Mahlavu): 14.1 µM
- IC50 (MCF7 [1]): 19.1 µM
- IC50 (Huh-7): 17.1 µM

SMILES: Nc1nn(Cc2cc(-c3ccc4ccccc4n3)no2)c2nc(-c3cccs3)cc(C(F)(F)F)c12
- IC50 (MCF7 [3]): 31.6 µM

SMILES: C[C@H](CCC(=O)O)[C@H]1CC[C@H]2[C@@H]3CC[C@@H]4C[C@H](O)CC[C@]4(C)[C@H]3CC[C@]12C [LITHOCHOLIC ACID]
- IC50 [5]: 2.71 µM
- IC50 [6]: 6.12 µM

SMILES: Cc1onc(-c2ccc([N+](=O)[O-])cc2)c1C1=NN(C(N)=S)C(c2cccs2)C1 (stereo not drawn)
- IC50 (MCF7 [3]): 2.25 µg/mL

SMILES: COc1ccc(C2CC(c3c(-c4ccc([N+](=O)[O-])cc4)noc3C)=NN2C(N)=S)cc1 (stereo not drawn)
- IC50 (MCF7 [3]): 4.48 µg/mL

SMILES: CC(=O)O[C@@]12CO[C@@H]1C[C@H](O)[C@@]1(C)C(=O)[C@H](O)C3=C(C)[C@@H](OC(=O)[C@H](O)[C@@H](NC(=O)OC(C)(C)C)c4ccccc4)C[C@@](O)([C@@H](OC(=O)c4ccccc4)[C@H]21)C3(C)C [DOCETAXEL ANHYDROUS]
- IC50 (DU-145): 5 µg/mL (≈ 6.19 µM)

SMILES: O=S(=O)(Nc1ccc(-c2cn[nH]c2)cc1)c1ccc(Cl)cc1
- IC50 (MCF7 [1]): 50 µM

SMILES: COc1ccc(-c2oncc2-c2ccc(Cl)cc2)c2ccccc12
- IC50 (MCF7 [7]): 5.26 µM

SMILES: O=C(O)c1cccc(/C=C/c2ccc(Oc3cnoc3-c3cccc(Cl)c3)cc2)c1
- IC50 [5]: 5.37 µM
- IC50 [6]: 7.58 µM

SMILES: O=C(O)c1cccc(/C=C/c2ccc(Oc3cnoc3-c3ccccc3Cl)cc2)c1
- IC50 [5]: 1.75 µM
- IC50 [6]: 36.2 µM

SMILES: O=C(O)c1cccc(/C=C/c2ccc(Oc3cnoc3-c3cccc([N+](=O)[O-])c3)cc2)c1
- IC50 [5]: 2.05 µM
- IC50 [6]: 13.2 µM

SMILES: FC(F)(F)c1ccc(CN2CCN(c3cc(-c4ccc(C(F)(F)F)cc4)on3)CC2)cc1
- IC50 (Mahlavu): > 40 µM
- IC50 (MCF7 [1]): 9.5 µM
- IC50 (Huh-7): 19.9 µM

SMILES: COc1ccc(-c2oncc2-c2ccccc2Cl)c2ccccc12
- IC50 (MCF7 [7]): 10 µM

SMILES: CC(=O)O[C@H]1C(=O)[C@@]2(C)[C@H]([C@H](OC(=O)c3ccccc3)[C@]3(O)C[C@H](OC(=O)[C@H](O)[C@@H](NC(=O)c4ccccc4)c4ccccc4)C(C)=C1C3(C)C)[C@]1(OC(C)=O)CO[C@@H]1C[C@@H]2O [PACLITAXEL]
- IC50 (MCF7 [3]): 0.015 µg/mL

SMILES: Cc1c(-c2nocc2C(=O)SC#N)c(=O)n(-c2ccccc2)n1C
- IC50 (Aromatase): 0.0023 µM

SMILES: CCCOc1ccc(-c2cc(N3CCN(Cc4ccc(C(F)(F)F)cc4)CC3)no2)cc1
- IC50 (Mahlavu): 7.7 µM
- IC50 (MCF7 [1]): 4.9 µM
- IC50 (Huh-7): 8.8 µM

SMILES: Cc1ccc(-c2cc(N3CCN(Cc4ccc(C(F)(F)F)cc4)CC3)no2)cc1
- IC50 (Mahlavu): > 40 µM
- IC50 (MCF7 [1]): 9.4 µM
- IC50 (Huh-7): 24 µM

SMILES: CS(=O)(=O)c1ccc(-c2cc(N3CCN(Cc4ccc(C(F)(F)F)cc4)CC3)no2)cc1
- IC50 (Mahlavu): 26 µM
- IC50 (MCF7 [1]): 2.9 µM
- IC50 (Huh-7): 4.2 µM

SMILES: Cc1cc(COc2ccc(-c3cc(N4CCN(Cc5ccc(C(F)(F)F)cc5)CC4)no3)cc2)n(C)n1
- IC50 (Mahlavu): 3.7 µM
- IC50 (MCF7 [1]): 1.2 µM
- IC50 (Huh-7): 0.3 µM

SMILES: Cc1onc(-c2ccc([N+](=O)[O-])cc2)c1C1=NN(C(N)=S)C(c2ccc(Cl)cc2)C1 (stereo not drawn)
- IC50 (MCF7 [3]): 5.42 µg/mL

SMILES: COc1ccc(C2CC(c3ccno3)=NN2C(N)=O)c(F)c1OC (stereo not drawn)
- IC50 (DU-145): 2 µg/mL (≈ 5.98 µM)

SMILES: Nc1nn(Cc2cc(-c3cccc(C(F)(F)F)c3)no2)c2nc(-c3cccs3)cc(C(F)(F)F)c12
- IC50 (MCF7 [3]): 13.4 µM

SMILES: CCOc1ccc(-c2cnoc2-c2ccc(OC)c3ccccc23)cc1
- inhibition at 2 µM (MCF7 [8]): 15.3%
- IC50 (Tubulin [9]): 3.4 µM
- IC50 (MCF7 [7]): 1.23 µM
- inhibition at 2 µM (MCF7 [10]): 6.44%

SMILES: COc1ccc(-c2cnoc2-c2ccc(OC)c3ccccc23)cc1
- IC50 (MCF7 [7]): 2.03 µM

SMILES: COc1cc(N(C(=O)CSc2nc3ccccc3s2)c2ccncc2)cc(OC)c1OC
- IC50 (CWR22R): 5.09 µM

SMILES: O=C(O)c1cccc(/C=C/c2ccc(Oc3cnoc3-c3ccc(Cl)c(Cl)c3)cc2)c1
- IC50 [5]: 0.91 µM
- IC50 [6]: 3.78 µM
